Source: the supplement of paper PMC10307832

Columns and labels:
Assay in all cases: relative viability (nuclei count vs DMSO), 5 days (fraction); higher = more cells survive
[1] = compound: C#Cc1cccc(Nc2ncnc3cc(OC)c(OCCCCCCC(=O)NO)cc23)c1 [CUDC-101] + C[C@]1(O)C[C@@H](c2nc(-c3ccc4ccc(-c5ccccc5)nc4c3)c3c(N)nccn32)C1 [Linsitinib] (partner 1 µM)
How it was run: (§1)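 Relative viability is defined as nuclei in treated wells over nuclei in vehicle wells. Duplicate plates were run and medians reported. Lung cancer cell lines in 1536-well plates were dosed by pin tool one day after seeding, with one drug or with a fixed anchor-drug dose plus five library-drug doses (not always all listed) in √10 steps, and nuclei were counted after 5 days.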

[2] = compound: COc1cc2/c(=N/c3ccc(Br)cc3F)nc[nH]c2cc1OCC1CCN(C)CC1 [Vandetanib] + O=C(CCCCCCC(=O)Nc1ccccc1)NO [Vorinostat] (partner 1 µM)
How it was run: as §1

[3] = compound: C#Cc1cccc(Nc2ncnc3cc(OC)c(OCCCCCCC(=O)NO)cc23)c1 [CUDC-101] + N=C(N)NC(=N)NCCc1ccccc1 [Phenformin] (partner 250 µM)
How it was run: as §1

[4] = compound: C#Cc1cccc(Nc2ncnc3cc(OC)c(OCCCCCCC(=O)NO)cc23)c1 [CUDC-101] + CS(=O)(=O)CCNCc1ccc(-c2ccc3ncnc(Nc4ccc(OCc5cccc(F)c5)c(Cl)c4)c3c2)o1 [Lapatinib] (partner 2 µM)
How it was run: as §1

| Cell Line | relative viability ([1]; first compound 0.01 µM) | relative viability ([1]; first compound 0.03162 µM) | relative viability ([1]; first compound 0.1 µM) | relative viability ([1]; first compound 0.3162 µM) | relative viability ([1]; first compound 1 µM) | relative viability ([2]; first compound 0.02 µM) | relative viability ([2]; first compound 0.06325 µM) | relative viability ([2]; first compound 0.2 µM) | relative viability ([2]; first compound 0.6325 µM) | relative viability ([2]; first compound 2 µM) | relative viability ([3]; first compound 0.01 µM) | relative viability ([3]; first compound 0.03162 µM) | relative viability ([3]; first compound 0.1 µM) | relative viability ([3]; first compound 0.3162 µM) | relative viability ([3]; first compound 1 µM) | relative viability ([4]; first compound 0.01 µM) | relative viability ([4]; first compound 0.03162 µM) | relative viability ([4]; first compound 0.1 µM) | relative viability ([4]; first compound 0.3162 µM) | relative viability ([4]; first compound 1 µM) |
| --- | --- | --- | --- | --- | --- | --- | --- | --- | --- | --- | --- | --- | --- | --- | --- | --- | --- | --- | --- | --- |
| NCI-H2126 | 0.742 | 0.646 | 0.733 | 0.648 | 0.586 | 0.801 | 0.736 | 0.703 | 0.702 | 0.699 | 0.556 | 0.532 | 0.517 | 0.52 | 0.403 | 0.764 | 0.785 | 0.758 | 0.803 | 0.635 |
| NCI-H650 | 0.992 | 0.876 | 1.04 | 0.662 | 0.688 | 0.585 | 0.533 | 0.514 | 0.544 | 0.341 | 0.453 | 0.475 | 0.465 | 0.385 | 0.38 | 0.947 | 1.1 | 0.899 | 0.582 | 0.405 |
| 201T | 1.05 | 0.93 | 0.978 | 1.05 | 0.781 | 0.886 | 0.876 | 0.959 | 0.904 | 0.957 | 0.438 | 0.442 | 0.424 | 0.411 | 0.358 | 1.03 | 1.02 | 0.943 | 1.08 | 0.872 |
| LU99A | 0.565 | 0.484 | 0.482 | 0.54 | 0.242 | 0.474 | 0.377 | 0.499 | 0.49 | 0.528 | 0.825 | 0.682 | 0.676 | 0.947 | 0.572 | 1.2 | 0.889 | 0.987 | 0.861 | 0.321 |
| NCI-H647 | 1.23 | 1.03 | 1.18 | 1.1 | 1.12 | 0.514 | 0.569 | 0.684 | 0.715 | 0.432 | 0.564 | 0.483 | 0.574 | 0.418 | 0.21 | 1.25 | 1.1 | 1.02 | 0.863 | 0.271 |
| LC-2-ad | 0.86 | 0.846 | 0.882 | 0.802 | 0.472 | 0.686 | 0.673 | 0.714 | 0.709 | 0.462 | 0.65 | 0.651 | 0.689 | 0.551 | 0.287 | 0.984 | 1.02 | 1.06 | 0.863 | 0.198 |
| LK-2 | 0.464 | 0.561 | 0.614 | 0.472 | 0.25 | 0.31 | 0.311 | 0.341 | 0.265 | 0.365 | 0.369 | 0.727 | 0.411 | 0.479 | 0.15 | 0.981 | 0.888 | 0.973 | 0.887 | 0.559 |
| NCI-H520 | 0.997 |  | 1.05 | 0.982 | 0.485 | 0.7 | 0.706 | 0.739 | 0.677 | 0.639 | 0.55 | 0.494 | 0.576 | 0.581 | 0.247 | 0.94 |  | 0.879 | 0.76 | 0.323 |
| NCI-H1975 | 1.1 | 0.881 | 1.01 | 0.888 | 0.905 | 0.71 | 0.646 | 0.709 | 0.665 | 0.636 | 0.415 | 0.401 | 0.416 | 0.425 | 0.378 | 1.02 | 0.913 | 0.844 | 0.82 | 0.411 |
